# Patent US8088916B2, “Hyaluronic acid-methotrexate conjugate” (priority 2004, dated 2012)
# pIC50: −log10 of the molar value.
# What was measured:
# [1] = Measurement of viscoelasticity; type: physicochemical; settings: sterile solutions, 37° C., cone 4 cm, CSL500 stress-controlled rheometer; FIG. 1
# Method: The viscoelasticities of the sterile solutions of hyaluronic acids (molecular weights: 1,900,000 and 800,000) and the conjugates of Examples 2-1, 2-8, 2-18, 2-27, and 2-29 were measured at 37° C. using a cone 4 cm in diameter by a CSL500 stress-controlled rheometer (from Carri-Med Ltd.).
# [2] = test system: mBSA-induced monoarthritis model; assay: Suppressive effect on knee joint swelling in mBSA-induced monoarthritis model; type: in vivo, rat; settings: for AUC (% of control) (mean ± SEM): AUC of knee joint swelling to two weeks after induction, control = HA-treated group, 50 μL into right knee joint 7 and 1 day before and 7 days after induction
# Method: An in vivo synovitis-suppressing effect of each HA-MTX conjugate of the invention was assessed on the basis of a suppressive effect on knee joint swelling in a methylated bovine serum albumin (mBSA)-induced monoarthritis model of rat. Since the mBSA-induced arthritis model employed in this experimental example is widely used as an antigen-induced arthritis model, and known to develop synovitis (Sven E. Andersson, et al., The Journal of Rheumatology (1998) 25: 9, 1772-7), the in vivo knee joint swelling-suppressing effect observed in this model conceivably represents a synovitis-suppressing effect. The compounds of the invention suppressing synovitis in vivo are useful as therapeutic drugs for joint diseases accompanied by synovitis (RA, OA, and the like).
# The animal used was the LEW/Crj rat (6-week old male, from Charles River Laboratories Japan, Inc.). Into the flank of the rat was subcutaneously injected 0.5 mL of an emulsion prepared from a 2 mg/mL mBSA (Calbiochem) aqueous solution and an equal amount of Freund's complete adjuvant (Difco) 21 and 14 days before inducing arthritis. The arthritis was induced by administering 50 μL of a 2 mg/mL mBSA aqueous solution into the right knee joint. The left knee joint was untreated, and served as control in each individual. Each test substance (sterile aqueous solution) and the control drug hyaluronic acid were each administered into the right knee joint in an amount of 50 μL 7 and 1 day before and 7 days after inducing arthritis.
# The determination of knee joint swelling involved measuring the widths of both knee joints with calipers to define the left/right difference (right knee diameter-left knee diameter) as a knee joint swelling. The width of each knee joint was measured at a frequency of twice a week from immediately before inducing arthritis to two weeks later to calculate AUC (an abbreviation for Area Under the Curve; here, it means an area under a curve with time for the joint swelling) from the transition thereof with time. At each measurement, the mean and standard deviation of AUC were calculated to perform an unpaired t-test between each test substance-treated group and the HA-treated group, and significant difference was judged to be present if the probability level is less than 5%. Statistical analysis used SAS version 6.12 (SAS Institute Japan). In addition, the AUC of each test substance was calculated, using that in the HA-treated group as a control, as a relative value (% of control) therefor.
# To verify the usefulness of the HA-MTX conjugate of the invention, the suppressive effect on joint swelling was compared, in accordance with the method of Example 3, among: 1) a group treated with the HA-MTX conjugate (sterile aqueous solution) prepared in Example 2-2; 2) a group treated with a solution containing MTX of an amount equal to that of MTX contained in the HA-MTX conjugate; and 3) a group of treated with a mixture (HA+MTX) of MTX and hyaluronic acid (HA) of amounts equal to those contained in the conjugate. The transition of knee joint swelling with time in this test is shown in FIG. 2, and the AUC thereof in FIG. 3.
# [3] = test system: human synovial cells (HFLS); assay: Anti-proliferative effect on synovial cells stimulated by TNF-α ([3H]-deoxyuridine uptake); type: cell-based; settings: TNF-α 10 ng/mL, 5 days culture, concentration calculated as MTX from conjugation rate
# From the text: An effect of the HA-MTX conjugates of the invention on cell proliferation induced by TNF-α stimulation was examined using human synovial cells (HFLS). The main lesion in rheumatoid arthritis (RA) occurs in the synovial tissue, and, as one of the features, it is known that synovial cells abnormally proliferate to form a granulation tissue (pannus) and thereby destroy the cartilage and bone of the joint. Secondary synovitis is also observed in osteoarthritis (OA). […] Thus, a compound inhibiting the proliferation of synovial cells stimulated by the inflammatory cytokine TNF-α suppresses the progression of the pathologic conditions of RA and OA and becomes a therapeutic drug therefor. The sterile aqueous solutions of the HA-MTX conjugates in Example 2 (Table 2) were used as test substances. HFLS (CA40405, Lot Nos. 1413 and 1493) was purchased from Cell Applications Ins. for use. HFLS was seeded at 5,000 cells/well on a 96-well plate (Falcon) and cultured for 3 hours in Iscove's modified Dulbecco's medium (IMDM) containing 5% FBS and 1× Antibiotic-Antimycotic (GIBOC). After cellular attachment, TNF-α (final concentration: 10 ng/mL) and each HA-MTX conjugate at each concentration was added, followed by cultivation for 5 days. Two days before the end of culture, was added 37 kBq/well of [^3H]-deoxyuridine in the cells (MORAVEK), followed by determining the uptake quantity (radioactivity) of [^3H]-deoxyuridine using a scintillation counter. Cells were recovered by unsticking them with 0.05% trypsin-0.2% EDTA. Radioactivity determined in each of the experiments with each test substance was calculated as a relative value (% of control), using, as control, radioactivity in the group of cells cultured without adding any test substance. […] GraphPad Prism 3.02).
# [4] = test system: collagenase-induced arthritis (OA) model; assay: Suppressive effect on knee joint swelling in collagenase-induced arthritis (OA) model; type: in vivo, rat; settings: AUC of knee joint swelling to 20 days after induction; 50 μL into right knee joint once a week from 7 and 1 day before induction; compared with HA-treated group
# Method: An in vivo synovitis-suppressing effect of the HA-MTX conjugate was evaluated in collagenase-induced OA model rats. The collagenase-induced OA model is a model in which inflammation has been induced within the knee joint by injecting collagenase into the knee joint to directly digest collagen in cartilage tissue. […] Therefore, the compound of the invention suppressing inflammation in the model and inhibiting cartilage degeneration therein will be useful as a therapeutic drug for OA.
# The animal used was the SD/Crj rat (6-week old male, from Charles River Laboratories Japan, Inc.). Into the articular cavity of the right knee was administered 50 μL of 1.5% collagenase (Sigma) solution to induce arthritis. The left knee joint was untreated to use as a control in each individual. Each test substance was administered into the right knee joint in an amount of 50 μL once a week from 7 and 1 day before inducing arthritis.
# The determination of knee joint swelling involved measuring the widths of both knee joints with calipers to determine the left/right difference (right knee diameter-left knee diameter), which was defined as a knee joint swelling. The width of each knee joint was measured on the order of twice a week from immediately before inducing arthritis to 20 days later to calculate AUC from a graph showing the transition thereof with time. At each measurement, the mean and standard error of the mean of AUC were calculated to perform an unpaired t-test between each test substance-treated group and the HA-treated group, and significant difference was judged to be present if the probability level is less than 5%.
# [5] = test system: arthritis model in which pathosis occurs in the knee joint; assay: Intra-articular administration to an arthritis model in which pathosis occurs in the knee joint; type: in vivo; settings: intra-articularly administered; summary statement
Substance,viscoelasticity [1],AUC (% of control) (mean ± SEM) [2],pIC50 [3],AUC (% of control) (mean ± SEM) [4],"suppressive effect on joint swelling / alleviating effect on synovitis ([2]; Experimental Example 4: conjugate vs equal amount of MTX vs mixture HA+MTX, FIGS. 2 and 3)",alleviating effect on synovitis [5]
MTX-α-Glu-NHC10H20O3NH-HA [Example 2-29],"viscoelasticities intermediate between those of the hyaluronic acids having molecular weights of 800,000 and 1,900,000",68.8 ± 6.7 % of control,5.08,–,–,–
MTX-α-Ile-NHC10H20O3NH-HA [Example 2-27],"viscoelasticities intermediate between those of the hyaluronic acids having molecular weights of 800,000 and 1,900,000",75.1 ± 6.8 % of control,5.51,82.6 ± 5.2 % of control,–,–
MTX-α-PheGly-NHC10H20O3NH-HA [Example 2-18],"viscoelasticities intermediate between those of the hyaluronic acids having molecular weights of 800,000 and 1,900,000",61.5 ± 4.7 % of control,5.04,65.9 ± 3.5 % of control,–,–
MTX-α-PhePhe-NHC2H4NH-HA [Example 2-1],"viscoelasticities intermediate between those of the hyaluronic acids having molecular weights of 800,000 and 1,900,000",48.5 ± 5.3 % of control,6.44,45.7 ± 3.9 % of control,–,–
MTX-α-PhePhe-NHC2H4NH-HA [Example 2-2],–,45.0 ± 6.8 % of control,6.85,48.9 ± 3.7 % of control,markedly strong suppressive effect on the joint swelling in the arthritis model compared to that of MTX alone or the mixture of MTX and HA,–
MTX-α-PhePhe-NHC8H16O2NH-HA [Example 2-10],–,63.7 ± 9.1 % of control,5.92,–,–,–
MTX-α-PhePhe-NHC10H2OO3NH-HA [Example 2-8],"viscoelasticities intermediate between those of the hyaluronic acids having molecular weights of 800,000 and 1,900,000",54.9 ± 7.2 % of control,6.08,54.8 ± 5.9 % of control,–,–
MTX-α-Tyr-NHC10H20O3NH-HA [Example 2-31],–,67.7 ± 6.2 % of control,5.15,–,–,–
MTX-α/γ-GlyPheLeuGly-NHC10H20O3NH-HA (methotrexate-GFLG-{NHC10H20O3NH-hyaluronic acid}; also: methotrexate linked via α- or γ-carboxyl) [Example 2-48],–,58.8 ± 11.6 % of control,5.89,–,–,–
hyaluronic acid [HA],–,–,–,–,–,not seen with HA
